Data from patent US20220257592A1, “METHODS OF TREATING CANCER” (HOFFMANN-LA ROCHE INC., priority 2019, published 2022).

Assay: Clinical trial safety, ALKA, STARTRK-1, STARTRK-2, STARTRK-NG (interim, N=355)
Settings: for Balance disorder / Confusional state / Dizziness / Headache / Paresthesia: CNS metastases
[1] = no prior CNS irradiation (N=48)
[2] = among the 32 patients with hyperuricemic adverse reactions
[3] = among the 36 patients with mood disorders
[4] = among the 51 patients with sleep disturbances
[5] = among the 96 patients with cognitive impairment
[6] = among the 136 patients who experienced dizziness
[7] = clinically relevant adverse reactions in ≤10% of patients
[8] = may be underestimated, 4.5% had no post-treatment liver function tests
[9] = patients with at least one post-baseline ECG assessment
[10] = worsening from baseline, NCI CTCAE v5.0

CN1CCN(c2ccc(C(=O)Nc3n[nH]c4ccc(Cc5cc(F)cc(F)c5)cc34)c(NC3CCOCC3)c2)CC1 [Entrectinib, N-[5-(3,5-difluorobenzyl)-1H-indazol-3-yl]-4-(4-methyl-piperazin-1-yl)-2-(tetrahydro-pyran-4-ylamino)-benzamide]
CHF, median time to onset (12 patients with CHF, range: 11 days to 12 months): 2 months
Congestive heart failure (355 patients): 3.4%
Congestive heart failure, Grade 3 (355 patients): 2.3%
Hyperuricemia reported as adverse reactions with symptoms, as well as elevated uric acid levels (355 patients): 9%
Increased ALT of any grade (355 patients): 36%
Increased AST of any grade (355 patients): 42%
Balance disorder [1]: 4%
Confusional state [1]: 2%
Dizziness [1]: 31%
Headache [1]: 13%
Paresthesia [1]: 6%
Balance disorder (prior CNS irradiation (N=90)): 13%
Confusional state (prior CNS irradiation (N=90)): 11%
Dizziness (prior CNS irradiation (N=90)): 38%
Headache (prior CNS irradiation (N=90)): 21%
Paresthesia (prior CNS irradiation (N=90)): 20%
Abdominal pain, All Grades (N = 355): 16%
Arthralgia, All Grades (N = 355): 21%
Ataxia, All Grades (N = 355): 17%
Back pain, All Grades (N = 355): 12%
Cognitive impairment, All Grades (N = 355): 27%
Constipation, All Grades (N = 355): 46%
Cough, All Grades (N = 355): 24%
Decreased appetite, All Grades (N = 355): 13%
Dehydration, All Grades (N = 355): 10%
Diarrhea, All Grades (N = 355): 35%
Dizziness, All Grades (N = 355): 38%
Dysesthesia, All Grades (N = 355): 34%
Dysgeusia, All Grades (N = 355): 44%
Dyspnea, All Grades (N = 355): 30%
Edema, All Grades (N = 355): 40%
Fatigue, All Grades (N = 355): 48%
Headache, All Grades (N = 355): 18%
Hypotension, All Grades (N = 355): 18%
Increased weight, All Grades (N = 355): 25%
Lung infection, All Grades (N = 355): 10%
Mood disorders, All Grades (N = 355): 10%
Muscular weakness, All Grades (N = 355): 12%
Myalgia, All Grades (N = 355): 28%
Nausea, All Grades (N = 355): 34%
Pain in extremity, All Grades (N = 355): 11%
Peripheral sensory neuropathy, All Grades (N = 355): 18%
Pyrexia, All Grades (N = 355): 21%
Rash, All Grades (N = 355): 11%
Sleep (sleep disturbances), All Grades (N = 355): 14%
Urinary tract infection, All Grades (N = 355): 13%
Vision disorders, All Grades (N = 355): 21%
Vomiting, All Grades (N = 355): 24%
Abdominal pain, Grade ≥3 (N = 355, Grades 3-5): 0.6%
Arthralgia, Grade ≥3 (N = 355, Grades 3-5): 0.6%
Ataxia, Grade ≥3 (N = 355, Grades 3-5): 0.8%
Back pain, Grade ≥3 (N = 355, Grades 3-5): 1%
Cognitive impairment, Grade ≥3 (N = 355, Grades 3-5): 4.5%
Constipation, Grade ≥3 (N = 355, Grades 3-5): 0.6%
Cough, Grade ≥3 (N = 355, Grades 3-5): 0.3%
Decreased appetite, Grade ≥3 (N = 355, Grades 3-5): 0.3%
Dehydration, Grade ≥3 (N = 355, Grades 3-5): 1.1%
Diarrhea, Grade ≥3 (N = 355, Grades 3-5): 2.0%
Dizziness, Grade ≥3 (N = 355, Grades 3-5): 0.8%
Dysesthesia, Grade ≥3 (N = 355, Grades 3-5): 0.3%
Dysgeusia, Grade ≥3 (N = 355, Grades 3-5): 0.3%
Edema, Grade ≥3 (N = 355, Grades 3-5): 1.1%
Fatigue, Grade ≥3 (N = 355, Grades 3-5): 5%
Headache, Grade ≥3 (N = 355, Grades 3-5): 0.3%
Hypotension, Grade ≥3 (N = 355, Grades 3-5): 2.8%
Increased weight, Grade ≥3 (N = 355, Grades 3-5): 7%
Mood disorders, Grade ≥3 (N = 355, Grades 3-5): 0.6%
Muscular weakness, Grade ≥3 (N = 355, Grades 3-5): 0.8%
Myalgia, Grade ≥3 (N = 355, Grades 3-5): 1.1%
Nausea, Grade ≥3 (N = 355, Grades 3-5): 0.3%
Pain in extremity, Grade ≥3 (N = 355, Grades 3-5): 0.3%
Peripheral sensory neuropathy, Grade ≥3 (N = 355, Grades 3-5): 1.1%
Pyrexia, Grade ≥3 (N = 355, Grades 3-5): 0.8%
Rash, Grade ≥3 (N = 355, Grades 3-5): 0.8%
Sleep (sleep disturbances), Grade ≥3 (N = 355, Grades 3-5): 0.6%
Urinary tract infection, Grade ≥3 (N = 355, Grades 3-5): 2.3%
Vision disorders, Grade ≥3 (N = 355, Grades 3-5): 0.8%
Vomiting, Grade ≥3 (N = 355, Grades 3-5): 0.8%
CHF resolved following interruption or discontinuation and medical management (among the 12 patients with CHF): 50%
entrectinib discontinued due to CHF (among the 12 patients with CHF): 17%
entrectinib interrupted due to CHF (among the 12 patients with CHF): 50%
Dose interruption due to hyperuricemia [2]: 6%
Dose reduction due to hyperuricemia [2]: 6%
Required urate-lowering medication [2]: 34%
Discontinuation due to mood disorders [3]: no patients discontinued
Dose interruption due to mood disorders [3]: 6%
Dose reduction due to mood disorders [3]: 6%
Discontinuation due to sleep disturbances [4]: no patients discontinued
Dose reduction due to sleep disturbances [4]: 6%
Discontinued entrectinib due to cognitive adverse reactions [5]: 1%
Dose interruption due to cognitive adverse reactions [5]: 18%
Dose reduction due to cognitive adverse reactions [5]: 13%
Discontinued entrectinib due to dizziness [6]: 0.7%
Dose interruption due to dizziness [6]: 7%
Dose reduction due to dizziness [6]: Ten
Grade 3 dizziness [6]: 2.2%
Dysphagia [7]: 10%
Fall [7]: 8%
Fractures [7]: 6%
Hypoxia [7]: 4.2%
Pleural effusion [7]: 8%
Pulmonary embolism [7]: 3.9%
QT prolongation [7]: 3.1%
Syncope [7]: 3.9%
Increased AST or ALT leading to dose interruptions (first value of 'respectively'): 0.8%
Cognitive impairment: amnesia (human, in vivo): 2.5%
Cognitive impairment: aphasia (human, in vivo): 2.3%
Cognitive impairment: cognitive disorders (human, in vivo): 8%
Cognitive impairment: confusional state (human, in vivo): 7%
Cognitive impairment: delirium (human, in vivo): 0.8%
Cognitive impairment: disturbance in attention (human, in vivo): 4.8%
Cognitive impairment: hallucinations (human, in vivo): 1.1%
Cognitive impairment: memory impairment (human, in vivo): 3.7%
Cognitive impairment: mental status changes (human, in vivo): 2%
Discontinuation due to hyperuricemia (human, in vivo): No patients discontinued
Dose interruption due to anemia (human, in vivo): 3.1%
Dose interruption due to cognitive disorder (human, in vivo): 2%
Dose interruption due to diarrhea (human, in vivo): 2.8%
Dose interruption due to dizziness (human, in vivo): 2.5%
Dose interruption due to dyspnea (human, in vivo): 2.3%
Dose interruption due to fatigue (human, in vivo): 3.7%
Dose interruption due to increased blood creatinine (human, in vivo): 4%
Dose interruption due to nausea (human, in vivo): 2.3%
Dose interruption due to neutropenia (human, in vivo): 2%
Dose interruption due to pneumonia (human, in vivo): 2.3%
Dose interruption due to pyrexia (human, in vivo): 2.8%
Dose interruptions due to adverse reactions (human, in vivo): 46%
Dose reduction due to anemia (human, in vivo): 1.7%
Dose reduction due to dizziness (human, in vivo): 3.9%
Dose reduction due to fatigue (human, in vivo): 2.3%
Dose reduction due to increased blood creatinine (human, in vivo): 3.1%
Dose reduction due to increased weight (human, in vivo): 1.4%
Dose reductions due to adverse reactions (human, in vivo): 29%
Entrectinib discontinued due to increased AST or ALT (human, in vivo): 0.8%
Grade 3 cognitive adverse reactions (human, in vivo): 4.5%
Grade 3 mood disorders (human, in vivo): 0.6%
Grade 3 or 4 adverse reactions (human, in vivo): 60%
Grade 3 or 4 cognitive disorders (human, in vivo): 4.5%
Grade 3 or 4 diarrhea (human, in vivo): 2%
Grade 3 or 4 dyspnea (human, in vivo): 6%
Grade 3 or 4 fatigue/asthenia (human, in vivo): 5%
Grade 3 or 4 hypotension (human, in vivo): 2.8%
Grade 3 or 4 hypoxia (human, in vivo): 3.4%
Grade 3 or 4 increased weight (human, in vivo): 7%
Grade 3 or 4 lung infection (human, in vivo): 5%
Grade 3 or 4 pleural effusion (human, in vivo): 3.1%
Grade 3 or 4 pulmonary embolism (human, in vivo): 3.4%
Grade 3 or 4 syncope (human, in vivo): 2.5%
Grade 3 or 4 urinary tract infection (human, in vivo): 2.5%
Grade 3 sleep disturbances (human, in vivo): 0.6%
Hyperuricemia resolved following urate-lowering medication without interruption or dose reduction (human, in vivo): 73%
Incidence of CNS adverse reactions in patients with and without CNS metastases (human, in vivo): similar
Mood disorders: agitation (human, in vivo): 2%
Mood disorders: anxiety (human, in vivo): 4.8%
Mood disorders: depression (human, in vivo): 2.8%
Most common adverse reactions (≥20%) (human, in vivo): fatigue, constipation, dysgeusia, edema, dizziness, diarrhea, nausea, dysesthesia, dyspnea, myalgia, cognitive impairment, increased weight, cough, vomiting, pyrexia, arthralgia and vision disorders
Myocarditis in the absence of CHF (human, in vivo): 0.3%
Permanent discontinuation due to an adverse reaction (human, in vivo): 9%
Permanent discontinuation due to cardio-respiratory arrest (human, in vivo): < 1%
Permanent discontinuation due to dyspnea (human, in vivo): < 1%
Permanent discontinuation due to fatigue (human, in vivo): < 1%
Permanent discontinuation due to pneumonia (human, in vivo): < 1%
Serious adverse reaction: dyspnea (human, in vivo): 3.7%
Serious adverse reaction: pleural effusion (human, in vivo): 3.4%
Serious adverse reaction: pneumonia (human, in vivo): 3.9%
Serious adverse reaction: pulmonary embolism (human, in vivo): 2.3%
Serious adverse reaction: pyrexia (human, in vivo): 2%
Serious adverse reaction: respiratory failure (human, in vivo): 2%
Serious adverse reaction: sepsis (human, in vivo): 2.5%
Serious adverse reactions (human, in vivo): 39%
Sleep disturbances: hypersomnia (human, in vivo): 1.1%
Sleep disturbances: insomnia (human, in vivo): 7%
Sleep disturbances: sleep disorder (human, in vivo): 0.3%
Sleep disturbances: somnolence (human, in vivo): 7%
Vision changes, Grade 1 (human, in vivo): 82%
Vision changes, Grade 2 (human, in vivo): 14%
Vision changes, Grade 3 (human, in vivo): 0.8%
Vision disorders: blurred vision (human, in vivo): 8.7%
Vision disorders: cataract (human, in vivo): 1.1%
Vision disorders: diplopia (human, in vivo): 3.1%
Vision disorders: photophobia (human, in vivo): 5.1%
Vision disorders: photopsia (human, in vivo): 1.3%
Vision disorders: visual impairment (human, in vivo): 2%
Vision disorders: vitreous floaters (human, in vivo): 1.1%
Grade 4 hyperuricemia (including one patient who died due to tumor lysis syndrome): 1.7%
Grade 3-4 increased ALT [8]: 2.8%
Grade 3-4 increased AST [8]: 2.5%
Cognitive impairment symptoms occurred within 3 months of starting entrectinib (of the 96 patients with cognitive impairment): 77%
QTcF interval >500 ms [9]: 0.6%
QTcF interval prolongation of >60 ms after starting entrectinib [9]: 3.1%
Mood disorders, median time to onset (range: 1 day to 9 months): 1 month
Increased ALT, median time to onset (range: 1 day to 9.2 months): 2 weeks
Increased AST, median time to onset (range: 1 day to 29.5 months): 2 weeks
Completed suicide (reported 11 days after treatment had ended): One
Grade 4 myocarditis after one dose of entrectinib (resolved after discontinuation and high-dose corticosteroids): One
Increased AST or ALT leading to dose reductions (second value of 'respectively'): 0.8%
Laboratory: Anemia, All Grades (worsening from baseline): 67%
Laboratory: Anemia, Grade 3 or 4 (worsening from baseline): 9%
Laboratory: Hyperkalemia, All Grades (worsening from baseline): 25%
Laboratory: Hyperkalemia, Grade 3 or 4 (worsening from baseline): 1.5%
Laboratory: Hypernatremia, All Grades (worsening from baseline): 35%
Laboratory: Hypernatremia, Grade 3 or 4 (worsening from baseline): 0.9%
Laboratory: Hyperuricemia, All Grades (worsening from baseline): 52%
Laboratory: Hyperuricemia, Grade 3 or 4 (worsening from baseline): 10%
Laboratory: Hypoalbuminemia, All Grades (worsening from baseline): 28%
Laboratory: Hypoalbuminemia, Grade 3 or 4 (worsening from baseline): 2.9%
Laboratory: Hypocalcemia, All Grades (worsening from baseline): 34%
Laboratory: Hypocalcemia, Grade 3 or 4 (worsening from baseline): 1.8%
Laboratory: Hypophosphatemia, All Grades (worsening from baseline): 30%
Laboratory: Hypophosphatemia, Grade 3 or 4 (worsening from baseline): 7%
Laboratory: Increased ALT, All Grades (worsening from baseline): 38%
Laboratory: Increased ALT, Grade 3 or 4 (worsening from baseline): 2.9%
Laboratory: Increased AST, All Grades (worsening from baseline): 44%
Laboratory: Increased AST, Grade 3 or 4 (worsening from baseline): 2.7%
Laboratory: Increased alkaline phosphatase, All Grades (worsening from baseline): 25%
Laboratory: Increased alkaline phosphatase, Grade 3 or 4 (worsening from baseline): 0.9%
Laboratory: Increased amylase, All Grades (worsening from baseline): 26%
Laboratory: Increased amylase, Grade 3 or 4 (worsening from baseline): 5.4%
Laboratory: Increased lipase, All Grades (worsening from baseline): 28%
Laboratory: Increased lipase, Grade 3 or 4 (worsening from baseline): 10%
Laboratory: Lymphopenia, All Grades (worsening from baseline): 40%
Laboratory: Lymphopenia, Grade 3 or 4 (worsening from baseline): 12%
Laboratory: Neutropenia, All Grades (worsening from baseline): 28%
Laboratory: Neutropenia, Grade 3 or 4 (worsening from baseline): 7%
Laboratory: Hyperglycemia, Grade 3 or 4 [10]: 3.8%
Laboratory: Increased creatinine, All Grades [10]: 73%
Laboratory: Increased creatinine, Grade 3 or 4 [10]: 2.1%
